Experimental data published in patent publication US20250082598A1, “Melafenoxate, 2-(1-adamantylamino)ethyl 2-(4-chlorophenoxy)acetate and derivatives thereof for treating circadian rhythm sleep disorders with neurodegenerative diseases such as Alzheimer's disease” (NLS Pharmaceutics AG, priority 2021, published 2025).

Target: T1, RXFP3 (h) (Homo sapiens, UniProt Q9NSD7)
T1 sequence (Q9NSD7 1-469): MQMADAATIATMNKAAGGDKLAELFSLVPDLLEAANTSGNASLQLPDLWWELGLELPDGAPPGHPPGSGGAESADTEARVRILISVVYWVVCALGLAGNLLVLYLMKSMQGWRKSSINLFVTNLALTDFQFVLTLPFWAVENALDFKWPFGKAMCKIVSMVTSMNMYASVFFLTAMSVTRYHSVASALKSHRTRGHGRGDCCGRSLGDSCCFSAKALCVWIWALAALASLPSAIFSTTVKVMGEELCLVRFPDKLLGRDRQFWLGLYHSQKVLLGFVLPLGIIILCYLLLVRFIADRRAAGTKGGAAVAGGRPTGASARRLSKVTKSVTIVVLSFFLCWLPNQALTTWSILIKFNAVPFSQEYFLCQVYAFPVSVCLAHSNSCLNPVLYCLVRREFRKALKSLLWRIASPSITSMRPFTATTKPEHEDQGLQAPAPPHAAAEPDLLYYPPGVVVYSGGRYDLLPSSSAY
Experiment: RXFP3 assay (Eurofins/LeadHunter, cAMP Hunter GPCR Biosensor)
Assay type: cell-based
Protocol: Melafenoxate is found to weakly bind with RXFP3 and RXFP4 receptors (Study FR095-0024749-Q Eurofins/leadHunter Jun. 25, 2021; unpublished data).
In these assays' compounds were tested in agonist and antagonist mode with the GPCR Biosensor Assays and match to this design:
• 1. CAMP Hunter cell lines were expanded from freezer stocks according to standard procedures. • 2. Cells were seeded in a total volume of 20 μL into white walled, 384-well microplates and incubated at 37° C. for the appropriate time prior to testing. • 3. cAMP modulation was determined using the DiscoverX HitHunter CAMP XS+assay.
• 1. For agonist determination, cells were incubated with sample to induce response. • 2. Media was aspirated from cells and replaced with 15 μL 2:1 HBSS/10 mM Hepes: CAMP XS+ Ab reagent. • 3. […]
• 1. […] Microplates were read following signal generation with a PerkinElmer Envision™ instrument for chemiluminescent signal detection.
• 1. Compound activity was analyzed using CBIS data analysis suite (ChemInnovation, CA). • 2. For Gs agonist mode assays, percentage activity is calculated using the following formula:
% Activity=100%×(mean RLU of test sample−mean RLU of vehicle control)/(mean RLU of MAX control−mean RLU of vehicle control). • 3. For Gs positive allosteric mode assays, percentage modulation is calculated using the following formula: http://www.eurofinsdiscoveryservices.com Confidential Jun. […]

binding with RXFP3 receptor (in words): weakly bind | % Inhibition at 5*10^−5 M (5*10^−5 M): 29.1%
Compound: O=C(COc1ccc(Cl)cc1)OCCNC12CC3CC(CC(C3)C1)C2 [Melafenoxate, 2-(1-adamantylamino)ethyl 2-(4-chlorophenoxy)acetate]
